Measured values published in US8383626B2, “Nitric oxide donors for inducing neurogenesis” (Henry Ford Health System, priority 1999, dated 2013).

Tests used:
[1] = system: newly formed cells (BrdU) in the subventricular zone and the dentate gyrus; test: BrdU-positive newly formed cells in rats after embolic MCA occlusion treated with DETANONO; format: in vivo, rat
Description: A pharmacological method to promote neurogenesis in brain was developed. Male Wistar rats were subjected to middle cerebral artery (MCA) occlusion by means of intraarterial placement of a clot at the origin of the right MCA. Animals were administered (iv/ip) nitric oxide donor compounds (DETANONO) after induction of stroke, at 24 and 48 hours (Group 1), or at 24 hours followed by daily injection (ip) of NO donor compound (Group 2). BrdU, a thymidine analog which identifies the formation of new cells, was injected (ip) daily over a period of 14 days from the onset of ischemia. Identification of cell type was determined by labeling immunoreactivity of specific cell proteins. Thus, neurons were identified by expression of NeuN, MAP2 and the astrocytes formed by GFAP. Measurements of neurogenesis were performed within specific regions of brain, the subventricular zone and the dentate gyrus.

[2] = system: neuronal progenitor cells in the SVZ and the dentate gyrus; test: Proliferation of neuronal progenitor cells (BrdU immunoreactive cell density) in non ischemic adult rats; format: in vivo, rat
Description: Two experiments were performed. In the first experiment, the effects of NO on the proliferation of neuronal progenitor cells in the SVZ and the dentate gyrus of non ischemic adult rats were examined. In the second experiment, the effects of NO on the proliferation of neuronal progenitor cells in the SVZ and in the dentate gyrus of ischemic adult rats were examined.
Male Wistar rats (n=28) weighing 300-350 g were anesthetized with halothane (1-3.5% in a mixture of 70% N2O and 30% O2) using a face mask. The rectal temperature was maintained at 37±1° C. throughout the surgical procedure using a feedback regulated water heating system. The right femoral artery and vein were cannulated with a PE-50 catheter for continuous monitoring of blood pressure and measurement of blood gases (pH, pO2, pCO2) and for drug administration, respectively. DETANONOate was intravenously and intraperitoneally injected to rats.
DETANONO treatment: Rats were randomly divided into four groups. Group 1 (single Rx), rats were intravenously injected with four consecutive bolus doses of DETANONO (0.1 mg/kg each) every fifteen minutes (total dose of 0.4 mg/kg). Group 2 (two Rx group), rats were intravenously injected with four consecutive bolus doses of DETANONO (0.1 mg/kg each) every fifteen minutes (total dose 0.4 mg/kg) and rats received a second treatment at 24 hours later. Group 3 (seven Rx group), rats received four consecutive intravenous bolus doses of DETANONO (0.1 mg/kg each) every fifteen minutes on the first experimental day and rats were intraperitoneally injected with a bolus dose of DETANONO (0.4 mg/kg) daily for an additional six consecutive days. Group 4 (control), rats received saline only (single dose).
Rats received an intraperitoneal injection of BrdU (50 mg/kg) on the first day of DETANONO treatment and daily intraperitoneal injections of BrdU for fourteen consecutive days. To determine whether the proliferation and the differentiation of cells in the SVZ and dentate gyrus of adult rats is affected by NO, rats were sacrificed at fourteen days (n=3-5 per group) and 42 days (n=3-5 per group) after first dose of DETANONO treatment, respectively. Rats were transcardially perfused with 4% paraformaldehyde in 100 mM phosphate buffer, pH 7.4. Brains were removed and fixed in 4% formaldehyde.
For BrdU immunostaining, DNA was first denatured by incubating brain sections (6 μm) in 50% formamide 2×SSC at 65° C. for 2 hours and then in 2N HCl at 37° C. for 30 minutes. Sections were then rinsed with Tris buffer and treated with 1% of H2O2 to block endogenous peroxidase. Sections were incubated with a primary antibody to BrdU (1:100) at room temperature for one hour and then incubated with biotinylated secondary antibody (1:200, Vector, Burlingame, Calif.) for one hour. Reaction product was detected using 3′3′-diaminobenzidine-tetrahydrochloride (DAB, Sigma).
BrdU immunostained sections were digitized under 40× objectively (Olympus BX40) via the MCID computer imaging analysis system (Imaging Research, St. Catharines, Canada). BrdU immunoreactive nuclei were counted on a computer monitor to improve visualization and in one focal plane to avoid over-sampling. Structures were sampled either by selecting predetermined areas on each section (RMS and OB) or by analyzing entire structures on each section (dentate gyrus and SVZ).
Every 40th coronal section was selected from each rat for a total of seven sections between AP+10.6 mm, genu corpus callosum, and AP+8.74 mm-anterior commissure crossing (Paxinos and Watson, 1986). BrdU immunoreactive-positive nuclei were counted in the lateral ventricle wall. All BrdU immunoreactive-positive nuclei in these areas are presented as the number of the BrdU immunoreactive cells/mm^2. Density for the seven sections was averaged to obtain a mean density value for each animal.
Every 20th section was selected from each rat for a total of six sections from the sagittal series of the OB/frontal cortex. […]

## NCCN(CCN)/[N+]([O-])=N/O [DETANONO, DETANONOate]
[1]; Group 1: treated at 24 and 48 hours after stroke, non-treated 37.3±3.6
  BrdU cells in the granule cell layer: 89.5±12
[1]; Group 2: 24 h after stroke then daily ip, BrdU daily 14 days, untreated 1653±91.4
  numbers of BrdU positive cells, subventricular zone: 2748±326
[1]; Group 2: 24 h after stroke then daily ip, untreated 37.3±3.6
  numbers of BrdU positive cells, dentate gyrus granule cell layer: 135±18.9
[1]; Group 2, untreated 10.1±2.4
  numbers of BrdU positive cells, dentate gyrus hilus: 43.8±10.2
[1]; Group 2, untreated 34.9±2.8
  numbers of BrdU positive cells, dentate gyrus (second pair of values, area not named): 53.7±6.3
[1]; ischemic rats
  newly formed cells within the dentate gyrus that were neurons: > 90%
[1]; rats treated with DETANONO and subjected to strokes, estimated
  newly formed cells within the hippocampus of neuronal phenotype: more than 90%
[2]; ONCE, 4 weeks after last BrdU injection (42 d), Contralateral
  Density of newborn cells, Olfactory bulb: 80 ± 12.3 cells per mm^2
[2]; ONCE, 4 weeks after last BrdU injection (42 d), Ipsilateral
  Density of newborn cells, Olfactory bulb: 75.65 ± 10.85 cells per mm^2
[2]; ONCE, 4 weeks after last BrdU injection, Left side
  Density of newborn cells, Rostral migratory stream: 26.25 ± 6.9 cells per mm^2
[2]; ONCE, 4 weeks after last BrdU injection, Right side
  Density of newborn cells, Rostral migratory stream: 22.5 ± 5.95 cells per mm^2
[2]; ONCE, 1 day after last BrdU injection (14 d), Contralateral
  Density of newborn cells, Olfactory bulb: 39.75 ± 6.2 cells per mm^2
[2]; ONCE, 1 day after last BrdU injection (14 d), Ipsilateral
  Density of newborn cells, Olfactory bulb: 41.4 ± 5.55 cells per mm^2
[2]; ONCE, 1 day after last BrdU injection (14 d), Left side
  Density of newborn cells, Rostral migratory stream: 998.55 ± 59.7 cells per mm^2
[2]; ONCE, 1 day after last BrdU injection (14 d), Right side
  Density of newborn cells, Rostral migratory stream: 950.25 ± 99.55 cells per mm^2
[2]; TWICE, 4 weeks after last BrdU injection (42 d), Contralateral
  Density of newborn cells, Olfactory bulb: 98.4 ± 19.95 cells per mm^2
[2]; TWICE, 4 weeks after last BrdU injection (42 d), Ipsilateral
  Density of newborn cells, Olfactory bulb: 85 ± 15.95 cells per mm^2
[2]; TWICE, 4 weeks after last BrdU injection, Left side
  Density of newborn cells, Rostral migratory stream: 37.8 ± 5.15 cells per mm^2
[2]; TWICE, 4 weeks after last BrdU injection, Right side
  Density of newborn cells, Rostral migratory stream: 32.9 ± 8.15 cells per mm^2
[2]; TWICE, 1 day after last BrdU injection (14 d), Contralateral
  Density of newborn cells, Olfactory bulb: 99.6 ± 10.5 cells per mm^2
[2]; TWICE, 1 day after last BrdU injection (14 d), Ipsilateral
  Density of newborn cells, Olfactory bulb: 91.65 ± 12.35 cells per mm^2
[2]; TWICE, 1 day after last BrdU injection (14 d), Left side
  Density of newborn cells, Rostral migratory stream: 1070.85 ± 160.1 cells per mm^2
[2]; TWICE, 1 day after last BrdU injection (14 d), Right side
  Density of newborn cells, Rostral migratory stream: 991 ± 98.25 cells per mm^2
[2]; non ischemic rats, 42 days after a single set, fourteen and 42 days after two and seven sets, vs control
  BrdU immunoreactive cells in OB: significant increases
[2]; non ischemic rats, fourteen days after treatment
  number of BrdU immunoreactive cells in the SVZ, seven doses vs one and two doses: highest number of BrdU immunoreactive cells
[2]; non ischemic rats, fourteen days and 42 days after treatment
  numbers of BrdU immunoreactive cells in the RMS: did not significantly increase
[2]; non ischemic rats, fourteen days and 42 days, vs control
  percentage of distribution of BrdU immunoreactive cells in the dentate gyrus: significantly decreases percentage of BrdU immunoreactive cells in subgranular zone and significantly increases in the granule layers
[2]; non ischemic rats, single treatment, fourteen days and 42 days
  numbers of BrdU immunoreactive cells in the dentate gyrus: did not significantly increase
[2]; non ischemic rats, two and seven sets, fourteen days and 42 days, vs control
  numbers of BrdU immunoreactive cells in the dentate gyrus: significant (p<0.01) increases
[2]; non ischemic rats, vs saline at fourteen days and 42 days after treatment
  numbers of BrdU immunoreactive cells in the SVZ: significant (p<0.05) increase
[2]; × 7 TIMES, 4 weeks after last BrdU injection (42 d), Contralateral
  Density of newborn cells, Olfactory bulb: 100.65 ± 19 cells per mm^2
[2]; × 7 TIMES, 4 weeks after last BrdU injection (42 d), Ipsilateral
  Density of newborn cells, Olfactory bulb: 84.4 ± 7.1 cells per mm^2
[2]; × 7 TIMES, 4 weeks after last BrdU injection, Left side
  Density of newborn cells, Rostral migratory stream: 47.5 ± 15.6 cells per mm^2
[2]; × 7 TIMES, 4 weeks after last BrdU injection, Right side
  Density of newborn cells, Rostral migratory stream: 45 ± 11.35 cells per mm^2
[2]; × 7 TIMES, 1 day after last BrdU injection (14 d), Contralateral
  Density of newborn cells, Olfactory bulb: 116.55 ± 16.45 cells per mm^2
[2]; × 7 TIMES, 1 day after last BrdU injection (14 d), Ipsilateral
  Density of newborn cells, Olfactory bulb: 106.25 ± 17.7 cells per mm^2
[2]; × 7 TIMES, 1 day after last BrdU injection (14 d), Left side
  Density of newborn cells, Rostral migratory stream: 1312.5 ± 265 cells per mm^2
[2]; × 7 TIMES, 1 day after last BrdU injection (14 d), Right side
  Density of newborn cells, Rostral migratory stream: 1169.4 ± 218.85 cells per mm^2
